Test results reported in patent US11332500B2, “Heterotandem bicyclic peptide complexes” (BicycleTx Limited, priority 2019, dated 2022).
*1 amine or outer side, *2 acyl side, *3 side chain or, on linkers, in order; H or OH if unused. Where a SMILES comes first, the peptide text is derived from it. Bridges are numbered along the chain shown (N, C = ends). Roman numbers before positions name the chains, in order. [ ]: non-standard residue; d: D form. TATA = O=C(CC[*:1])N1CN(C(=O)CC[*:2])CN(C(=O)CC[*:3])C1; X2 = O=C(CCOCCOCCOCCOCCOCCn1cc(CCC(=O)[*:2])nn1)[*:1]; hArg = N=C(N)NCCCC[C@H](N)C(=O)O; tBuAla = CC(C)(C)C[C@H](N)C(=O)O; Nle = CCCC[C@H](N)C(=O)O

Target: T1, CD137 (Homo sapiens, UniProt Q07011)
T1 construct: host or cells: Jurkat reporter cells from the Promega kit, co-cultured with tumour cells (NCI-H292, PC3 or RKO)
T1 sequence (Q07011 24-255): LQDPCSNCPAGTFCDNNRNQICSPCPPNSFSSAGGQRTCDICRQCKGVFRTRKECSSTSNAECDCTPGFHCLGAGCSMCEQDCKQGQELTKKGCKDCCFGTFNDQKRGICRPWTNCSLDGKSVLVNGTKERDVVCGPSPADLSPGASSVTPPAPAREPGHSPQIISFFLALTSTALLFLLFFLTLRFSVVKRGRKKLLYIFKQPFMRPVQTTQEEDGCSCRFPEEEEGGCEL
Assay: CD137 reporter assay co-culture with RKO tumour cells (PD-L1/CD137 heterotandems)
Type: cell-based
Settings: Jurkat CD137 reporter cells co-cultured with RKO (PD-L1), 6 h; read-out: Fold Induction over background
Method: Culture medium, referred to as R1 media, is prepared by adding 1% FBS to RPMI-1640 (component of Promega kit CS196005). Serial dilutions of test articles in R1 are prepared in a sterile 96 well-plate. Add 25 μL per well of test articles or R1 (as a background control) to designated wells in a white cell culture plate. Tumour cells* are harvested and resuspended at a concentration of 400,000 cells/mL in R1 media. Twenty five (25) μL/well of tumour cells are added to the white cell culture plate. Jurkat cells (Promega kit CS196005, 0.5 mL) are thawed in the water bath and then added to 5 ml pre-warmed R1 media. Twenty five (25) μL/well of Jurkat cells are then added to the white cell culture plate. Incubate the cells and test articles for 6 h at 37° C., 5% CO2. At the end of 6 h, add 75 μL/well Bio-Glo™ reagent (Promega) and incubate for 10 min before reading luminescence in a plate reader (Clariostar, BMG). The fold change relative to cells alone (Jurkat cells+Cell line used in co-culture) is calculated and plotted in GraphPad Prism as log(agonist) vs response to determine EC50 (nM) and Fold Induction over background (Max).
The tumour cell type used in co-culture for EphA2 is PC3. The tumour cell type used in co-culture for PD-L1 is RKO.
A summary of the fold induction induced by PD-L1/CD137 heterotandem peptides in the CD137 reporter coculture assay with RKO cells is shown in Table 3.

CCCC[C@@H]1NC(=O)[C@H](Cc2ccc(O)cc2)NC(=O)[C@@H]2CCCN2C(=O)[C@H](CC(=O)O)NC(=O)[C@H](C)NC(=O)[C@H](Cc2ccccc2)NC(=O)[C@@H]2CSCCC(=O)N3CN(CN(C3)C(=O)CCSC[C@@H](C(=O)N[C@@H](C)C(N)=O)NC1=O)C(=O)CCSC[C@H](NC(C)=O)C(=O)N[C@@H](CC(C)(C)C)C(=O)N1CCC[C@H]1C(=O)N[C@@H](CCC(=O)O)C(=O)N[C@H](CCCCNC(=O)CCc1cn(CCOCCOCCOCCOCCOCCC(=O)NCCCC[C@@H]3NC(=O)[C@H](CC(C)C)NC(=O)[C@H](CCCCNC(C)=O)NC(=O)[C@H](CCC(N)=O)NC(=O)[C@@H]4CSCCC(=O)N5CN(CN(C5)C(=O)CCSC[C@@H](C(=O)N5CCC[C@H]5C(=O)N[C@@H](CO)C(=O)N[C@@H](Cc5c[nH]cn5)C(N)=O)NC(=O)[C@H](CC(C)C)NC3=O)C(=O)CCSC[C@H](NC(=O)[C@H](CCCCNC(=N)N)NC(=O)[C@H](CC(=O)O)NC(C)=O)C(=O)N[C@@H](CO)C(=O)N[C@@H](C)C(=O)NCC(=O)N[C@@H](Cc3c[nH]c5ccccc35)C(=O)N[C@@H](CC(C)C)C(=O)N[C@@H]([C@@H](C)O)C(=O)N[C@@H](CCSC)C(=O)N4)nn1)C(=O)N1CCC[C@H]1C(=O)N[C@@H](Cc1ccc(O)cc1)C(=O)N2 [BCY12242] (I: Ac-D[hArg]CSAGWLTMCQK(Ac)LKLCPSH-NH2 / II: Ac-C[tBuAla]PE[dK]PYCFADPY[Nle]CA-NH2; linker I:3-I:11-I:17, II:1-II:8-II:15 via TATA; linker I:15-II:5 via X2)
fold induction: 13
